Read-outs that look alike come from different tables or passages of the source.
How the values were obtained:
[1] = molecular target: T1, FTase (Homo sapiens, UniProt P49354+P49356); settings: background, have been shown; cited from earlier work
[2] = molecular target: T1, FTase; assay: in vitro inhibition of FTase by farnesylated monophosphates; type: biochemical
[3] = read-out: IC50 for inhibition of FTase

Row | SMILES | inhibition of FTase, described in words [1] | IC50 [2, 3] | other results
1 | CC(C)=CCCC(C)=CCCC(=CCOP(=O)(O)OP(=O)(O)O)C(C)(C)C [pyrophosphate of 3-t-butylfarnesol] | nanomolar inhibitors |  | 
2 | CC(C)=CCCC(C)=CCCC(=CCOP(=O)(O)O)CC=C(C)C [3-(3,3-dimethylallyl)farnesyl monophosphate] |  |  | IC50 ([2]; highest dose tested 10 uM, read-out: IC50 for inhibition of FTase (not showing 50% inhibition at the highest dose tested)): > 10000 nM
3 | C=CCC(=CCOP(=O)(O)OP(=O)(O)O)CCC=C(C)CCC=C(C)C [pyrophosphate of 3-allylfarnesol] | nanomolar inhibitors |  | 
4 | CC(C)=CCCC(C)=CCCC(=CCOP(=O)(O)OP(=O)(O)O)CC=C(C)C [pyrophosphate of 3-(3,3-dimethylallyl)farnesol] | protein-selective inhibitor |  | 
5 | C=CCC(=CCOP(=O)(O)O)CCC=C(C)CCC=C(C)C [3-Allylfarnesyl monophosphate, 3-allylfarnesyl monophosphate] |  | ~11 nM | 
6 | CC(C)=CCCC(C)=CCCC(=CCOP(=O)(O)O)C(C)(C)C [3-t-butylfarnesyl monophosphate] |  | ~16 nM | 

From patent publication US8324378B2, “Prodrugs and conjugates of prenylation inhibitors” (Purdue Research Foundation, priority 2007, dated 2012)
